Experimental findings from US10925874B2, “Substituted pyrazolopyrimidines as glucocerebrosidase activators” (The United States of America, as Represented by the …, priority 2010, dated 2021) are described below.

In this experiment the target is T1, N370S glucocerebrosidase from human spleen homogenate (Homo sapiens, UniProt P04062, N409S).
T1 construct: N370S glucocerebrosidase from human spleen homogenate as the enzyme preparation; from tissue; host or cells: human spleen homogenate
T1 sequence (P04062 40-536 N409S): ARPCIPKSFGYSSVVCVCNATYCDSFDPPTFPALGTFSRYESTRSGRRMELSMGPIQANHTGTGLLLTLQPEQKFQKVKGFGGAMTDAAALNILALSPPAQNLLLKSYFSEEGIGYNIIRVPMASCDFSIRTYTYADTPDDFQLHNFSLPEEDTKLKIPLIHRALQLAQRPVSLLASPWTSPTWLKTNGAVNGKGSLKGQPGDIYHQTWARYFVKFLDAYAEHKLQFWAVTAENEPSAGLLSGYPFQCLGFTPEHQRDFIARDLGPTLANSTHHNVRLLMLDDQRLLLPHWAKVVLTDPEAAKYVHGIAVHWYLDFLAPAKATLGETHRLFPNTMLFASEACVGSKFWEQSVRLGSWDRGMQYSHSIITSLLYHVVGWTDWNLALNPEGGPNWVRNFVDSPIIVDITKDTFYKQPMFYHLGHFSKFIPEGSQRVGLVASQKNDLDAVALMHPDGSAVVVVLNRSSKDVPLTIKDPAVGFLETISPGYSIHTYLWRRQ
Briefly: qHTS fluorogenic enzyme assay for activators of N370S glucocerebrosidase (4-methylumbelliferyl-beta-D-glucopyranoside substrate). It is filed as biochemical. As to conditions: pH 5.0, 37° C. 40 min. The text has this: qHTS Assay for Inhibitors and Activators of N370S glucocerebrosidase as a Potential Chaperone Treatment of Gaucher Disease: Primary Screen Confirmation
This is a fluorogenic enzyme assay with 4-methylumbelliferyl-beta-D-glucopyranoside as the substrate and N370S glucocerebrosidase from human spleen homogenate as the enzyme preparation. Upon the hydrolysis of this fluorogenic substrate, the resulting product, […] which can be detected by a standard fluorescence plate reader. Data were normalized to the controls for basal activity (without enzyme) and 100% activity (with enzyme). The AC50 values were determined from concentration-response data modeled with the standard Hill equation.
Human spleen homogenate is prepared as follows by homogenizing spleen with assay buffer containing 50 mM citric acid (titrated with potassium phosphate to pH 5.0), 100 mM potassium chloride, 10 mM sodium chloride, 1 mM magnesium chloride, 0.01% Tween-20. The protein concentration of the human spleen homogenate is approximated 1.35 ug/ul.
The assay is performed in 1536 well plates according to the following protocol. (1) 2 ul spleen homogenate ([…] final) is added to each well. (2) 23 nL test compound in DMSO solution is added to each well. The final concentration of compound in the test well is 0.5 nM to 58 uM. (3) 2 ul of substrate (1 mM final) are added to each well. (4) Incubate assay plates at 37° C. for 40 min. (5) Add 2 ul stop solution (1M NaOH and 1M Glycine mixture, pH 10) to each well. (6) Detect the assay plate in a ViewLux plate reader (PerkinElmer) using 365 nm excitation with emission at 440 nm.
Regarding `C=C1C=C(C(F)F)n2ncc(C(=O)Nc3cccc(CC)c3)c2N1` [NCGC00182142-01, 7-(difluoromethyl)-N-(3-ethylphenyl)-5-methylene-4,5-dihydropyrazolo[1,5-a]pyrimidine-3-carboxamide], the AC50 (as a rule, the midpoint of the concentration-response curve, whichever way the signal moves) came to 10 µM. This counts as double-digit micromolar.
As for `CCc1ccc(NC(=O)c2cnn3c(C(F)F)cc(C)nc23)cc1` [MLS000708974-01, 7-(difluoromethyl)-N-(4-ethylphenyl)-5-methylpyrazolo[1,5-a]pyrimidine-3-carboxamide], the figure is 2.24 µM; as for `Cc1cc(C)n2ncc(C(=O)NCc3ccccc3)c2n1` [NCGC00187976-01, N-benzyl-5,7-dimethylpyrazolo[1,5-a]pyrimidine-3-carboxamide], 51.7 µM; as for `Cc1cc(C)n2ncc(C(=O)Nc3cnc4ccccc4c3)c2n1` [NCGC00188762-01, 5,7-dimethyl-N-(quinolin-3-yl)pyrazolo[1,5-a]pyrimidine-3-carboxamide], 16.3 µM.
`Cc1cc(-c2ccccc2)nc2c(C(=O)NC3CCC(C(C)(C)C)CC3)cnn12` (centres unmarked) [NCGC00229708-01, N-(4-tert-butylcyclohexyl)-7-methyl-5-phenylpyrazolo[1,5-a]pyrimidine-3-carboxamide]: the half-maximal activity concentration (AC50) was 2.06 µM.
Under `Cc1cc(-c2ccccc2)n2ncc(C(=O)NC3CCC(C(C)(C)C)CC3)c2n1` (centres unmarked) [NCGC0229711-01, N-(4-tert-butylcyclohexyl)-5-methyl-7-phenylpyrazolo[1,5-a]pyrimidine-3-carboxamide] stands 32.6 µM; under `Cc1cc(-c2ccccc2)nc2c(C(=O)Nc3ccc4c(c3)CCC4)cnn12` [NCGC00229719-01, N-(2,3-dihydro-1H-inden-5-yl)-7-methyl-5-phenylpyrazolo[1,5-a]pyrimidine-3-carboxamide], 8.19 µM; under `O=C(Nc1ccccc1Sc1ccccc1)c1cnn2c1NC(=C1CC1)C=C2C(F)(F)F` [NCGC00182190-01, 5-cyclopropylidene-N-(2-(phenylthio)phenyl)-7-(trifluoromethyl)-4,5-dihydropyrazolo[1,5-a]pyrimidine-3-carboxamide], 14.1 µM.
As for `Cc1cc(C)n2ncc(C(=O)Nc3ccc4c(c3)OCO4)c2n1` [NCGC00054856-02, N-(benzo[d][1,3]dioxol-5-yl)-5,7-dimethylpyrazolo[1,5-a]pyrimidine-3-carboxamide], the figure is 6.51 µM.
`Cc1ccc(NC(=O)c2cnn3c(C)cc(C)nc23)c(C)c1` [NCGC00188778-01, N-(2,4-dimethylphenyl)-5,7-dimethylpyrazolo[1,5-a]pyrimidine-3-carboxamide] registered an AC50 of 13 µM.
`O=C(Nc1ccc2c(c1)OCCO2)c1cnn2c1NC(=C1CC1)C=C2C(F)F` [NCGC00182167-01, 5-cyclopropylidene-7-(difluoromethyl)-N-(2,3-dihydrobenzo[b][1,4]dioxin-6-yl)-4,5-dihydropyrazolo[1,5-a]pyrimidine-3-carboxmaide] yielded an AC50 of 8.91 µM.
The compound `Cc1cccc(NC(=O)c2cnn3c(C)cc(C)nc23)c1` [NCGC00188771-01, 5,7-dimethyl-N-m-tolylpyrazolo[1,5-a]pyrimidine-3-carboxamide] had an AC50 of 6.51 µM.
Under `COc1ccc(NC(=O)c2cnn3c(C)cc(C)nc23)cc1F` [NCGC00188776-01, N-(3-fluoro-4-methoxyphenyl)-5,7-dimethylpyrazolo[,15-a]pyrimidine-3-carboxamide] stands 1.46 µM.
Under `COc1ccc(NC(=O)c2cnn3c(C)cc(C)nc23)cc1Cl` [NCGC00188780-01, N-(3-chloro-4-methoxyphenyl)-5,7-dimethylpyrazolo[1,5-a]pyrimidine-3-carboxamide] stands 2.06 µM; under `Cc1cc(C)n2ncc(C(=O)NC3CCC(C(C)(C)C)CC3)c2n1` (centres unmarked) [NCGC00188755-01, N-(4-tert-butylcyclohexyl)-5,7-dimethylpyrazolo[1,5-a]pyrimidine-3-carboxamide], 4.11 µM.
As for `Cc1cc(C)n2ncc(C(=O)Nc3ccc(C(C)(C)C)cc3)c2n1` [NCGC00188764-01, N-(4-tert-butylphenyl)-5,7-dimethylpyrazolo[1,5-a]pyrimidine-3-carboxamide], the figure is 2.31 µM; as for `C=C1C=C(C)n2ncc(C(=O)Nc3ccccc3C(=O)OC)c2N1` [NCGC00182165-01, methyl 2-(7-methyl-5-methylene-4,5-dihydropyrazolo[1,5-a]pyrimidine-3-carboxamido)benzoate], 10 µM.
In the case of `Cc1cc(C)n2ncc(C(=O)Nc3ccc(Cl)c(Cl)c3)c2n1` [NCGC00229713-01, N-(3,4-dichlorophenyl)-5,7-dimethylpyrazolo[1,5-a]pyrimidine-3-carboxamide], half-maximal activity (AC50) was put at 3.66 µM.
For `CCc1ccc(NC(=O)c2cnn3c(C)cc(C)nc23)cc1` [NCGC00187970-01, N-(4-ethylphenyl)-5,7-dimethylpyrazolo[1,5-a]pyrimidine-3-carboxamide], the AC50 was determined as 3.26 µM. The AC50 values of the last two compounds are within 1.5-fold of each other.
Under `Cc1cc(-c2ccccc2)nc2c(C(=O)NC3CCC(C(C)(C)C)CC3)cnn12` (centres unmarked) [NCGC00229707-01, N-(4-tert-butylcyclohexyl)-7-methyl-5-phenylpyrazolo[1,5-a]pyrimidine-3-carboxamide] stands 5.8 µM; under `C=C1C=C(C)n2ncc(C(=O)NCCCCCC)c2N1` [NCGC00182197-01, N-hexyl-7-methyl-5-methylene-4,5-dihydropyrazolo[1,5-a]pyrimidine-3-carboxamide], 15.8 µM; under `CC(=O)c1ccc(NC(=O)c2cnn3c(C)cc(C)nc23)cc1` [NCGC00188784-01, N-(4-acetylphenyl)-5,7-dimethylpyraozlo[1,5-a]pyrimidine-3-carboxamide], 163 µM.
As to `Cc1cc(C)n2ncc(C(=O)Nc3ccc(F)cc3)c2n1` [NCGC00188766-01, N-(4-fluorophenyl)-5,7-dimethylpyrazolo[1,5-a]pyrimidine-3-carboxamide], the AC50 worked out at 5.8 µM.
As for `Cc1cc(C)n2ncc(C(=O)Nc3ccc4c(c3)OCCO4)c2n1` [NCGC00188773-01, N-(2,3-dihydrobenzo[b][1,4]dioxin-6-yl)-5,7-dimethylpyrazolo[1,5-a]pyrimidine-3-carboxamide], the figure is 10.3 µM.
In turn, `Cc1cc(-c2ccccc2)nc2c(C(=O)Nc3ccc(Cl)c(Cl)c3)cnn12` [NCGC00229715-01, N-(3,4-dichlorophenyl)-7-methyl-5-phenylpyrazolo[1,5-a]pyrimidine-3-carboxamide] registered an AC50 of 6.51 µM.
Under `C=C1C=C(C(F)F)n2ncc(C(=O)Nc3ccc(N(CC)CC)cc3)c2N1` [NCGC00182154-01, N-(4-(diethylamino)phenyl)-7-(difluoromethyl)-5-methylene-4,5-dihydropyrazolo[1,5-a]pyrimidine-3-carboxamide] stands 11.2 µM; under `CC(C)(C)C1CCC(NC(=O)c2cnn3c2NC(=C2CC2)C=C3C(F)F)CC1` (centres unmarked) [NCGC00182182-01, N-(4-tet-butylcyclohexyl)-5-cyclopropylidene-7-(difluoromethyl)-4,5-dihydropyrazolo[1,5-a]pyrimidine-3-carboxamide], 11.2 µM.
Compound `Cc1cc(C)n2ncc(C(=O)Nc3ccc(C#N)cc3)c2n1` [NCGC00188769-01, N-(4-cyanophenyl)-5,7-dimethylpyrazolo[1,5-a]pyrimidine-3-carboxamide] displayed an AC50 of 20.6 µM.
Under `C=C1C=C(C(F)F)n2ncc(C(=O)NCCc3ccc(Cl)cc3)c2N1` [NCGC00182159-01, N-(4-chlorophenethyl)-7-(difluoromethyl)-5-methylene-4,5-dihydropyrazolo[1,5-a]pyrimidine-3-carboxamide] stands 15.8 µM; under `Cc1cc(C)n2ncc(C(=O)Nc3ccc4ccccc4n3)c2n1` [NCGC00188763-01, 5,7-dimethyl-N-(quinolin-2-yl)pyrazolo[1,5-a]pyrimidine-3-carboxamide], 20.6 µM.
Under `Cc1ccc(NC(=O)c2cnn3c(-c4ccccc4)cc(C)nc23)cc1` [NCGC0229718-01, 5-methyl-7-phenyl-N-p-tolylpyrazolo[1,5-a]pyrimidine-3-carboxamide] stands 206 µM.
As for `CCC(C)c1ccc(NC(=O)c2cnn3c(C(F)F)cc(C)nc23)cc1` (centres unmarked) [MLS000662237-01, N-(4-sec-butylphenyl)-7-(difluoromethyl)-5-methylpyrazolo[1,5-a]pyrimidine-3-carboxamide], the figure is 5.01 µM.
